{
  "source": "patent US20170131285A1",
  "about": "“METHODS AND COMPOSITIONS FOR DIAGNOSING, MONITORING AND TREATING CANCER” (INSERM (Institut National de la Sante et de la Recherche …, priority 2014, published 2017)",
  "key": {"HSP70/TLR2 association": {"biological_target": "T1, HSP70/TLR2 association (Homo sapiens, UniProt P0DMV8)", "T1 construct": "HA; made in house; host or cells: cell-free: TNT Quick Coupled Transcription/Translation System (Promega)", "T1 sequence (P0DMV8 whole entry)": "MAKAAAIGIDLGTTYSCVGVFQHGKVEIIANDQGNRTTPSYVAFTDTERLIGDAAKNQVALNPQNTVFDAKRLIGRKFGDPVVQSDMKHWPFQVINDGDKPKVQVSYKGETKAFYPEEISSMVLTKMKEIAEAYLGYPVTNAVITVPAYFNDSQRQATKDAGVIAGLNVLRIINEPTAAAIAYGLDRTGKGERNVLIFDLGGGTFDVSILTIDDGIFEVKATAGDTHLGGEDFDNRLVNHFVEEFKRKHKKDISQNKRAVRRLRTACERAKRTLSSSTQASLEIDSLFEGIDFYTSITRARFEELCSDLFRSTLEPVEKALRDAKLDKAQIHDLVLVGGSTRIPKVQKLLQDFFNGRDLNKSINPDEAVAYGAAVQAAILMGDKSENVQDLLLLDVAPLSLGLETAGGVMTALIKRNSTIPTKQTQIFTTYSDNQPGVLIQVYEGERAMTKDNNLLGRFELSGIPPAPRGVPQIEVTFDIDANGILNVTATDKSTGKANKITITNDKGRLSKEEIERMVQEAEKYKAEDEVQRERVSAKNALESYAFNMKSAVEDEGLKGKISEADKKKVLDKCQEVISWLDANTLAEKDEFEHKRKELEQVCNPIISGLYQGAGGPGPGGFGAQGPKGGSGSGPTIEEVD", "experiment": "In vitro co-immunoprecipitation of TLR2 followed by HSP70 immunoblotting", "type": "binding", "settings": "A8 from 0.3 μM to 1.8 μM, HSP70 immunoblot", "protocol": "(§1) FIG. 3: A8 blocks HSP70/TLR2 association. (A) Immunoprecipitation of TLR2 in the presence of increasing concentrations of A8 (from 0.3 μM to 1.8 μM) was followed by HSP70 immunoblotting. IP control, no relevant IgG antibody. (B) Denatured luciferase (D) was incubated in the absence or presence of human HSP70 and, when indicated, increasing concentrations of A8 (C1=5 μM; C2=15 μM; C3=25 μM and C4=50 μM) for 1 hour at 25° C. Following incubation, the luciferase substrate D-luciferin was added and within 10 minutes the total light units emitted were collected for 10 seconds at 560 nm using a Wallac (Victor 3) spectrophotometer. *, p<0.05. (C) Biolayer interferometry to determine association and dissociation curves of HSP70 (concentration range from 2.5 μM to 156 nM) with biotinylated TRL2 immobilized on streptavidin sensor tips. (D) Association and dissociation curves of HSP70 (concentration range from 50 nM to 1.28 nM) with biotinylated A8 immobilized on streptavidin sensor tips. Curves in C and D represent mean values of triplicate measurements for each concentration.\nFor the in vitro coimmunoprecipitation, we used A8 or TLR2 recombinants proteins. […] The immunoprecipitated proteins were analysed by western blot.\nFor the in vitro co-immunoprecipitation, we used A8 or TLR2 recombinants proteins. […] The immunoprecipitated proteins were analyzed by western blot."}, "human HSP70/HSP40": {"biological_target": "T2, human HSP70/HSP40 (Homo sapiens, UniProt P0DMV8)", "T2 construct": "purchased StressGen (EnzoLife)", "T2 sequence (P0DMV8 whole entry)": "as above", "experiment": "Refolding luciferase assay (HSP70 chaperone activity)", "type": "biochemical", "settings": "A8 5 μM to 50 μM, 1 hour at 25° C., purified recombinant proteins", "protocol": "as §1, with “concentration. […]” for “concentration.”"}, "primary MDSC cells": {"system": "primary MDSC cells", "experiment": "Activation of primary MDSC by exosomes (pSTAT3, IL-6, IL-10, IFNγ in T cell co-culture)", "type": "cell-based", "settings": "primary MDSC from mouse spleen, exosomes from B16F10, A8 16 μM", "protocol": "FIG. 8: A8 blocks the activation of primary MDSC cells. A) A representative image of a western blot showing the kinetics of STAT3 phosphorylation in MDSC cells incubated or not with exosomes isolated from B16F10 cells together with a peptide control (MDSC/TDE) or A8 (MDSC/TDE/A8). B-C) IL-6 (B) and IL-10 (C) concentration was determined by ELISA in the supernatant of MDSC cells incubated or not for 24 h with exosomes (from B16F10) in the absence or presence of A8 (16 μM). D) IFNγ concentration was determined by ELISA in the supernatant of co-cultured MDSC and T lymphocytes incubated or not for 5 days with exosomes (from B16F10) in the absence or presence of A8 ([…]). **, p<0.01; *, p<0.1 (n=3).\nMSC2 (2·10^6) or MDSC (2·10^6) were incubated alone or with exosomes (from B16F10, CT26, HCT116, SW480) in the absence or presence of A8 or A17 (16 μM) during 6 hours (RPMI 10% FBS, 5% of CO2 at 37° C.). Every 2 hours, […] cells were sampled and centrifugated 5 min at 300 g. Cells were lysed in lysis buffer (50 mM HEPES (pH 7.6), 150 mM NaCl, 5 mM EDTA, and 0.1% NP40 and anti-phosphatases, Roche). Then, pSTAT3 and STAT3 expression were analyzed by western blotting.\nSingle-cell suspensions were prepared from spleens, and red cells were removed using ammonium chloride lysis buffer. […] All events were acquired by a BD Bioscience LSR-II device and analyzed with FlowJo (Tree Star). […]"}, "[1]": {"experiment": "Toxicity observed in treated animals", "type": "in vivo", "settings": "applicant's studies and bio-distribution studies"}},
  "note": "Where no end group is shown, it is not given here.",
  "data": [
    {"sequence": "SPWPRPTY [Aptamer A8, SPWPRPTY]", "values": [
      {"measurement": "HSP70 association to TLR2", "setting": "HSP70/TLR2 association", "result": "inhibited by A8 in a dose-dependent manner"},
      {"measurement": "HSP70 chaperone activity (luciferase refolding)", "setting": "human HSP70/HSP40", "result": "blocked, in a dose-dependent manner"},
      {"measurement": "MDSC activation markers (IL6 release, STAT-3 phosphorylation, IL10 release, IFNgamma release by T cells)", "setting": "primary MDSC cells", "result": "blocks all MDSC activation markers"},
      {"measurement": "toxicity in the animals, notably cardiac or hepatic", "setting": "[1]", "result": "neither our studies nor those done for the bio-distribution of A8 indicate any evident toxicity"}
    ]}
  ]
}
